How the values were obtained:
[1] = Solubility of HDDS in esters of dibasic acids; format: physicochemical
[2] = Ultraviolet radiation transmittance and SPF of sunscreen lotions, LABSPHERE Ultraviolet Transmittance Analyzer
Experimental: Sunscreen lotion compositions were made and tested for UV absorbance. A control sample sunscreen lotion was made without a compound of formula (I) and a test sample was made in accordance with the invention, using a compound of formula (I) wherein n is 6 (HDDS). Table 1 summarizes the composition of the control and HDDS sunscreen lotions, by wt. %.
To prepare the sunscreen lotions, the A phase ingredients were blended together and heated to 90° C. to dissolve the oxybenzone. Next, the B phase ingredients were added with stirring until homogeneous. In a separate vessel, EDTA was dissolved in water and heated to 85° C. A preblended mixture of preservative, butylene glycol, and glycerin was added to the EDTA/water solution. In a separate vessel, carbomer was dispersed in 50 g water and set aside. With homogenization, the A+B oil phase was added to the C water phase. Next, the pre-dispersed carbomer D phase was added to the A+B+C mixture. While maintaining the temperature at 85° C., the mixture was homogenized for about 10 minutes, and then removed from heat and stirred with a propellor while cooling. When the temperature was below 40° C., the neutralizer E was slowly added and the mixture was stirred until a smooth, homogeneous lotion resulted.
Ultraviolet radiation transmittance and SPF of the control and HDDS samples were measured over the range 290 to 400 nm using a LABSPHERE Ultraviolet Transmittance Analyzer. Five scans were performed on each sample. Critical Wavelength (nm) and SPF data are reported in Table 2 below for the control and HDDS samples.
The ordinate represents absorbance, in units log(base 10)*(1/transmittance (%)), and the abscissa represents wavelength in nanometers.

[3] = HDDS in a sunscreen lotion versus control lotion

soluble in diisopropyl adipate ([1]; solvent diisopropyl adipate): at least 5 % by weight
soluble in dilsopropyl sebacate ([1]; solvent dilsopropyl sebacate): at least 5 % by weight
soluble in dioctyl adipate ([1]; solvent dioctyl adipate): at least 5 % by weight
soluble in dioctyl maleate ([1]; solvent dioctyl maleate): at least 5 % by weight
soluble in dioctyl sebacate ([1]; solvent dioctyl sebacate): at least 5 % by weight
Compound: O=C(OCCCCCCOC(=O)c1ccccc1O)c1ccccc1O [HDDS, hexanediol disalicylate]
UV absorbance of the lotion ([2]; FIG. 1, average of five scans, versus control sample): increases UV absorbance of the lotion at every wavelength of radiation measured
SPF value of the lotion [2, 3]: boosts the SPF value
transmittance of UVA and UVB radiation [2, 3]: reduces the transmittance of UVA and UVB radiation

Source: US6355261B1, “Ultraviolet radiation absorbing waxes useful in cosmetic compositions” (priority 1999, dated 2002)
